The target of assay [1] is T1, E. coli β-glucuronidase (eβG) (Escherichia coli, UniProt P05804).
T1 construct: histidine tag (N); made in house; host or cells: E. coli BL21 (DE3)
Description: In vitro βG-activity assay (pNPG hydrolysis), eβG. In kind it is biochemical. The conditions noted are these: for eβG activity (%) with 50 μM compound: pH 7.3, percent of activity vs untreated control. The protocol: (§1) Plasmid pRESTB containing βG gene and a histidine tag at the N-terminus was constructed as described. Recombinant βG (human and E. coli) was produced by isopropyl β-D-thiogalactopyranoside (IPTG) induction of BL21 (DE3) bacteria. βG was purified from bacterial supernatants by affinity chromatography on nickels Sepharose 6 Fast Flow (GE Healthcare). The column was washed by phosphate-buffered saline (PBS), with 50 mM imidazole, and βG was eluted by PBS with 250 mM imidazole. The purified βG was desalted on a Sephadex G-25 column equilibrated with PBS and stored at −80°C.
The candidate compounds were purchased from SPECS (The Netherlands). Each candidate was provided as a solid power and dissolved in 100% DMSO (Sigma-Aldrich) to 10 mM as stock. Candidates were screened for their inhibition specificity of eβG versus hβG, which were conducted at pH 7.3 or pH 5.4, in triplicate, respectively. 40 μL purified βG was treated with 10 μL compound solution at 37°C for 30 min and sequentially incubated with 50 μL of pNPG (Sigma-Aldrich) at 37°C for 30 min. Reactions were quenched with 5 μL of 2 N sodium hydroxide (Sigma-Aldrich). Each reaction consisted of 3.75 ng purified βG, 50 μM compound, and 5 mM pNPG in PBS containing 10% DMSO and 0.05% BSA (Sigma-Aldrich). βG-activities were measured by color development of pNP detected on a microplate reader at OD 405 nm. […] For IC50 determination, compounds at various concentrations (100 μM to 0.001 μM) were added.
Supplementary file 740815.f1.pdf: Fifty-nine candidate compounds were acquired from the initial virtually screening which was designed to target the bacterial loop of eβG and its active site. The docking energy scores of 59 candidate compounds measured by the DOCK program are -43 to -55 kcal/mol. (Table S1) The candidate compounds were purchased from SPECS (Zoetermeer, The Netherlands). Each candidate was rovided as a solid power and dissolved in 100% DMSO (Sigma-Aldrich, MO, USA) to 10 mM as stock. Candidates were screening for their inhibition specificity of eβG verse hβG, which were conducted at pH 7.3 or pH 5.4 in triplicate, respectively. 40 µL purified βG was treated with 10 µL compound solution at 37 °C for 30 min, and sequentially incubated with 50 µL of pNPG (Sigma-Aldrich) at 37 °C for 30 min. Reactions were quenched with 5 µL of 2 N sodium hydroxide (Sigma-Aldrich). Each reaction consisted of 3.75 ng purified βG, 50 µM compound, and 5 mM pNPG in PBS containing 10% DMSO and 0.05% BSA (Sigma-Aldrich). βG-activities were measured by color development of pNP detected on a microplate reader at OD 405 nm. […] Especially, the inhibiting ability against eβG activity was >95% in 7 candidates of eβG specific inhibitors (Table S1).
(§2) Fifty-nine candidate compounds were acquired from the initial virtually screening which was designed to target the bacterial loop of eβG and its active site. The docking energy scores of 59 candidate compounds measured by the DOCK program are -43 to -55 kcal/mol. (Table S1) The candidate compounds were purchased from SPECS (Zoetermeer, The Netherlands). Each candidate was provided as a solid power and dissolved in 100% DMSO (Sigma-Aldrich, MO, USA) to 10 mM as stock. Candidates were screening for their inhibition specificity of eβG verse hβG, which were conducted at pH 7.3 or pH 5.4 in triplicate, respectively. 40 μL purified βG was treated with 10 μL compound solution at 37 °C for 30 min, and sequentially incubated with 50 μL of pNPG (Sigma-Aldrich) at 37 °C for 30 min. Reactions were quenched with 5 μL of 2 N sodium hydroxide (Sigma-Aldrich). Each reaction consisted of 3.75 ng purified βG, 50 μM compound, and 5 mM pNPG in PBS containing 10% DMSO and 0.05% BSA (Sigma-Aldrich). βG-activities were measured by color development of pNP detected on a microplate reader at OD 405 nm. […]
percent of βG activity compared with the untreated control.
Especially, the inhibiting ability against eβG activity was >95% in 7 candidates of eβG specific inhibitors (Table S1).
Table S1. […]

Another assay deals with T2, human βG (hβG) (Homo sapiens, UniProt P08236).
T2 construct: histidine tag (N); made in house; host or cells: E. coli BL21 (DE3)
T2 sequence (P08236 23-651): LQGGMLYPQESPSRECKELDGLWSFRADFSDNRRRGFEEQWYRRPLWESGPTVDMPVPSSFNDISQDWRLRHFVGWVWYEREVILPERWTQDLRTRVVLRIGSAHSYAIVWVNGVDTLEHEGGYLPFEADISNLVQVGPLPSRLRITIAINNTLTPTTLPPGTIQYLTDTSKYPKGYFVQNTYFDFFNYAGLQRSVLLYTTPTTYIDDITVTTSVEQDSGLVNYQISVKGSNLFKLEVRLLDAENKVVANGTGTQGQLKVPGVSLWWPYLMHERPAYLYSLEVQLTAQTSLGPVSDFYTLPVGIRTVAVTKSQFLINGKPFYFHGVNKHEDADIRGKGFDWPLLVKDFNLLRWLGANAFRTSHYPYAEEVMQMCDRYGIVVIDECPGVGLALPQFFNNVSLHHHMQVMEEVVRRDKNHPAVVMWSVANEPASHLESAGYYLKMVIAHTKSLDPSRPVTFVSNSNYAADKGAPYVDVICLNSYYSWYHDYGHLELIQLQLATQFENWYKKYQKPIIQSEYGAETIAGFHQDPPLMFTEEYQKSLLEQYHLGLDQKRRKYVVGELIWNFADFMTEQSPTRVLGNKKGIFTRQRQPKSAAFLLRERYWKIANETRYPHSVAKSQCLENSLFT
Put plainly: In vitro βG-activity assay (pNPG hydrolysis), hβG. In kind it is biochemical. The conditions noted are these: pH 5.4, percent of activity vs untreated control. The procedure:
as §1
The candidate compounds were purchased from SPECS (The Netherlands). Each candidate was provided as a solid power and dissolved in 100% DMSO (Sigma-Aldrich) to 10 mM as stock. Candidates were screened for their inhibition specificity of eβG versus hβG, which were conducted at pH 7.3 or pH 5.4, in triplicate, respectively. 40 μL purified βG was treated with 10 μL compound solution at 37°C for 30 min and sequentially incubated with 50 μL of pNPG (Sigma-Aldrich) at 37°C for 30 min. Reactions were quenched with 5 μL of 2 N sodium hydroxide (Sigma-Aldrich). Each reaction consisted of 3.75 ng purified βG, 50 μM compound, and 5 mM pNPG in PBS containing 10% DMSO and 0.05% BSA (Sigma-Aldrich). βG-activities were measured by color development of pNP detected on a microplate reader at OD 405 nm.
as §2, with “(Table” for “Fifty-nine candidate compounds were acquired from the initial virtually screening which was designed to target the bacterial loop of eβG and its active site. The docking energy scores of 59 candidate compounds measured by the DOCK program are -43 to -55 kcal/mol. (Table”, “rovided” for “provided”, “µL” for “μL”, “µM” for “μM”
candidate compounds were purchased from SPECS (Zoetermeer, The Netherlands). Each candidate was provided as a solid power and dissolved in 100% DMSO (Sigma-Aldrich, MO, USA) to 10 mM as stock. Candidates were screening for their inhibition specificity of eβG verse hβG, which were conducted at pH 7.3 or pH 5.4 in triplicate, respectively. 40 μL purified βG was treated with 10 μL compound solution at 37 °C for 30 min, and sequentially incubated with 50 μL of pNPG (Sigma-Aldrich) at 37 °C for 30 min. Reactions were quenched with 5 μL of 2 N sodium hydroxide (Sigma-Aldrich). Each reaction consisted of 3.75 ng purified βG, 50 μM compound, and 5 mM pNPG in PBS containing 10% DMSO and 0.05% BSA (Sigma-Aldrich). βG-activities were measured by color development of pNP detected on a microplate reader at OD 405 nm.

T1 sequence (P05804 whole entry): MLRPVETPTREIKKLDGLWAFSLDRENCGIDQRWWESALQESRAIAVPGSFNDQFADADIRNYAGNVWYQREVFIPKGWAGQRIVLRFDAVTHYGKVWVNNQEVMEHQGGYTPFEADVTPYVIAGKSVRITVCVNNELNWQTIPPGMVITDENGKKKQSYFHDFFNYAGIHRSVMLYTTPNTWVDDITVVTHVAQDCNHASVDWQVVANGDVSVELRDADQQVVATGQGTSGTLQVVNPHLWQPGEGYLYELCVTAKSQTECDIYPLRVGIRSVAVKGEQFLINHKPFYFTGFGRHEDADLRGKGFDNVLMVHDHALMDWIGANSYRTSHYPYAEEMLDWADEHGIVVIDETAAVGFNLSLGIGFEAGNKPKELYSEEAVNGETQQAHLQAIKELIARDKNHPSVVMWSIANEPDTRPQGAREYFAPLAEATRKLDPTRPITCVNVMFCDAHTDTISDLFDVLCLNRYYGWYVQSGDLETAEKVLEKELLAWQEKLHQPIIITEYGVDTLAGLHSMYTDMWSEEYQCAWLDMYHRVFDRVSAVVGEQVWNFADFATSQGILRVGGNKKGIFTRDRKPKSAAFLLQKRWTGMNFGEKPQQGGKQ

Take `Cc1ccc2c(c1)C1CN(C)CCC1N2C(=O)c1cc(Cl)ccc1[N+](=O)[O-]` (stereo not shown) [Compound 3959]: in assay [1], the “eβG activity (%) with 50 μM compound” value was 42.88%. Besides, at human βG (hβG), the “hβG activity (%) with 50 μM compound” value is on record as 105.45%.

As to `NC1=C2N=C(c3ccc([N+](=O)[O-])cc3)NN2NN1` [Compound 8013a], the “eβG activity (%) with 50 μM compound” value in assay [1] is 60.40%. The “hβG activity (%) with 50 μM compound” value on human βG (hβG) is on record as 100.33%.

For the compound `COc1ccc(S(=O)(=O)NCCN2CCOCC2)c2ccccc12` [Compound 7670], in assay [1], the “eβG activity (%) with 50 μM compound” value came to 43.16%. Further, at human βG (hβG), the “hβG activity (%) with 50 μM compound” value is reported as 93.31%.

On to `COc1cc(C(=O)OC(C)CN2CCN(C)CC2)cc(OC)c1OC` (stereo not shown) [Compound 3250], for which the “eβG activity (%) with 50 μM compound” value in assay [1] is 33.62%. For the same compound, the “hβG activity (%) with 50 μM compound” value on human βG (hβG) was determined as 96.94%.

Regarding `CN1CCN(C(=O)c2cc3cc([N+](=O)[O-])ccc3oc2=O)CC1` [Compound 2715], the “eβG activity (%) with 50 μM compound” value in assay [1] is given as 53.06%. The “hβG activity (%) with 50 μM compound” value on human βG (hβG) turned out to be 114.38%.

With `COc1cc(C(=O)N2CCNCC2)cc(OC)c1OC` [Compound 6368], in assay [1], the “eβG activity (%) with 50 μM compound” value came out at 44.87%. Besides, the “hβG activity (%) with 50 μM compound” value at human βG (hβG) is 116.03%.

As to `Cc1ccc(Cl)cc1NC1=NS(=O)(=O)c2ccccc21` [Compound 1448], in assay [1], the “eβG activity (%) with 50 μM compound” value was 11.11%. The “hβG activity (%) with 50 μM compound” value at human βG (hβG) is 109.67%.

`CC1(C)CC(O)C(C(O)c2cccc([N+](=O)[O-])c2)C(C)(C)N1` (stereo not shown) [Compound 4021]: in assay [1], the “eβG activity (%) with 50 μM compound” value was found to be 28.56%. In addition, at human βG (hβG), the “hβG activity (%) with 50 μM compound” value is 103.06%.

Consider `O=C(NC(NCc1ccco1)C(Cl)(Cl)Cl)c1ccc(Br)cc1` (stereo not shown) [Compound 6019], for which the “eβG activity (%) with 50 μM compound” value in assay [1] is given as 33.83%. The “hβG activity (%) with 50 μM compound” value on human βG (hβG) is given as 104.96%.

As for `Cc1cccc2n(C)c(/C=N/N=C(N)N)c[n+]12` [Compound 0956], the “eβG activity (%) with 50 μM compound” value in assay [1] is on record as 29.70%. The “hβG activity (%) with 50 μM compound” value on human βG (hβG) was 103.31%.

In the case of `O=C(Nc1ccc(S(=O)(=O)N2CCCC2)cc1)c1[nH]ncc1[N+](=O)[O-]` [Compound 6843], the “eβG activity (%) with 50 μM compound” value in assay [1] turned out to be 27.49%. Also, at human βG (hβG), the “hβG activity (%) with 50 μM compound” value came out at 108.76%.

Turning to `Cc1cccc(C(=O)NC2(C(F)(F)F)C(=O)Nc3c2c(=O)[nH]c(=O)n3-c2ccc(Cl)cc2)c1` (stereo not shown) [Compound 8572], the “eβG activity (%) with 50 μM compound” value in assay [1] is listed as 17.66%. Moreover, the “hβG activity (%) with 50 μM compound” value on human βG (hβG) was found to be 102.81%.

In the case of `CC1=NN(c2ccc(Cl)cc2)C(=O)/C1=C\N1CCN(C)CC1` [Compound 6003], in assay [1], the “eβG activity (%) with 50 μM compound” value is reported as 9.76%. Also, the “hβG activity (%) with 50 μM compound” value on human βG (hβG) was found to be 93.06%.

For `Cc1cccnc1NCn1c(=O)oc2cc([N+](=O)[O-])ccc21` [Compound 3043], the “eβG activity (%) with 50 μM compound” value in assay [1] stood at 25.14%. For the same compound, the “hβG activity (%) with 50 μM compound” value on human βG (hβG) is given as 103.55%.

Regarding `CCOC(=O)c1ccc(NC(=S)N2CCN(C)CC2)cc1` [Compound 1089], in assay [1], the “eβG activity (%) with 50 μM compound” value is 47.22%. The “hβG activity (%) with 50 μM compound” value at human βG (hβG) was 119.17%.

In the case of `N#Cc1cc2[nH]c(=O)c(=O)[nH]c2cc1[N+](=O)[O-]` [Compound 5012], the “eβG activity (%) with 50 μM compound” value in assay [1] is on record as 14.96%. Besides, the “hβG activity (%) with 50 μM compound” value on human βG (hβG) came to 108.51%.

Consider `NC(N)=Nc1nc2ccc(Br)cc2c(=O)[nH]1` [Compound 2020], for which the “eβG activity (%) with 50 μM compound” value in assay [1] was determined as 13.68%. Also, the “hβG activity (%) with 50 μM compound” value on human βG (hβG) is 84.13%.

Turning to `CS(=O)(=O)c1ccc2nc(NC(=O)c3ccccc3C(=O)O)sc2c1` [Compound 9107], the “eβG activity (%) with 50 μM compound” value in assay [1] stood at 29.70%. Moreover, on human βG (hβG), the “hβG activity (%) with 50 μM compound” value is 105.37%.

Regarding `Cc1cc(NS(=O)(=O)c2ccc(NC(=O)c3cc(Cl)ccc3[N+](=O)[O-])cc2)nc(C)n1` [Compound 5003], the “eβG activity (%) with 50 μM compound” value in assay [1] was determined as 17.02%. Further, the “hβG activity (%) with 50 μM compound” value at human βG (hβG) is on record as 105.54%.

`Cc1ccc(S(=O)(=O)N=C2C=C(Sc3nnc[nH]3)C(=O)c3ccccc32)cc1` [Compound 4041, 4-methyl-N-(4-oxo-3-(1H-1,2,4-triazol-5ylsulfanyl)-1(4H)-naphthalenylidene)benzenesulfonamide]: the inhibition (as a rule, the change of the read-out against control, counted positive when it falls) at 10 µM in assay [1] (read-out: inhibition of eβG activity) is above 80%. Also, in assay [1] (recombinant eβG, pNPG substrate, pH 7.3), the IC50 (in general, the point on the concentration scale where inhibition reaches its midpoint) was 2800 nM.

The record behind these values is article PMC4370192, “Discovery of Specific Inhibitors for Intestinal E. coli β-Glucuronidase through In Silico Virtual Screening” (The Scientific World Journal, 2015).
